Converted amounts (≈) assume the structure as drawn. Like-named read-outs stand apart in the source and are kept apart here.
How the values were obtained:
hep2 cell line = assay: Toxicity: viability of hep2 cell line after incubation with the compound; type: cell-based; conditions: compared with nystatin
Experimental: Toxicity: Toxicity was tested with hep2 cell line by checking their viability after incubation with the compound. The amount of the compound that corresponds to 50% cell viability is the maximum amount of compound that can be apply on to cell culture.

microorganisms = assay: Potency testing, cylinder plate assay, method USP <81>; type: cell-based; conditions: for 1 mg
Description: The terms “antifungal activity” or “potency,” these terms being used interchangeably, refer to the inhibitory effect of an antifungal agent on microorganisms under suitable conditions as measured using a standard analytical method, such as the methods established by the United States Pharmacopeial Convention (USP).
Potency testing is done using a cylinder plate assay using the methods described in U.S. Pharmacopeia, e.g., Pharmacopeial Forum, Vol. 36(6) [November-December 2010] <81> Antibiotics—Microbial Assays, USP 32 page 86 ff.
FIG. 5 is a photo showing the results of potency testing according to method USP/81 of the nystatin ethanol amide product.

Endotoxin testing (LAL) = conditions: standard methods
Experimental: Endotoxin testing (LAL) was performed using standard methods and found to be <30 Eu/mg.

Aspergillus niger = assay: Minimum inhibitory concentration (MIC) testing, diffusion disc assay; type: cell-based; conditions: for MIC: Aspergillus niger, read-out: Inhibition of Aspergillus niger (MIC)
Experimental: (§1) Minimum inhibitory concentration (MIC) testing was determined for nystatin ethanol amide along with comparative antifungal agents.
(§2) Nystatin (Solid) and amphotericin were dissolved in DMF in 1 mg/mL. Econazole nitrate and Nystatin ethanol amide (salt) were dissolved in PBS to achieve 1 mg/mL.
(§3) Antibiotic medium 19 was sterilized in autoclave, after sterilization when the temperature lowered to 45° C. and 1 mL from spore suspension was added. 8 mL from this mixture dispensed to each petri dish.
(§4) On each dish 6 sterile diffusion paper disc were placed, 10 μL from each antibiotic were applied in 10, 15, 20, 25, 30, 35 μg/mL concentrations. Where MIC concentrations were below 10, lower concentrations were used: 2, 5, 7.5 μg/mL
(§5) The petri dishes were incubated overnight at 30° C. The MIC were determined as the lower concentration that inhibition could be visualized.
(§6) Observations. In this diffusion disc assay we measured the minimal concentration applied by each compound needed to inhibit the growth of C. albicans and A. niger. […] Amphotericin B inhibit the growth of C. albicans (16 μg/mL) similarly to Nystatin and Nystatin water soluble.

Candida albicans = assay: as above; type: cell-based; conditions: for Inhibition of Candida albicans (MIC): diffusion paper disc, overnight at 30° C., average of three experiments
Experimental: as §1, §2, §3, §4, §5, §6

[1] = diffusion paper disc, overnight at 30° C., average of three experiments

| Molecule | Inhibition of Aspergillus niger (MIC) (Aspergillus niger; [1]) | Inhibition of Candida albicans (MIC) (Candida albicans) | also measured |
| --- | --- | --- | --- |
| C[C@@H]1[C@H](O)[C@@H](C)/C=C/C=C/CC/C=C/C=C/C=C/C=C/[C@H](O[C@@H]2O[C@H](C)[C@@H](O)[C@H](N)[C@@H]2O)C[C@@H]2O[C@](O)(C[C@@H](O)[C@H](O)CC[C@@H](O)C[C@@H](O)C[C@@H](O)CC(=O)O[C@H]1C)C[C@H](O)[C@H]2C(=O)NCCO [Nystatin ethanol amide] |  |  | Toxicity (amount of compound corresponding to 50% cell viability) (hep2 cell line): the same or better than the unsalable nystatin; potency (microorganisms): 5500-6500 U; Endotoxin (LAL) (Endotoxin testing (LAL)): < 30 Eu/mg; MIC (Aspergillus niger): 23.6 µg/mL (≈ 24.4 µM); MIC (Candida albicans; Candida albicans, read-out: Inhibition of Candida albicans (MIC)): 15.7 µg/mL (≈ 16.2 µM) |
| C[C@@H]1[C@H](O)[C@@H](C)/C=C/C=C/C=C/C=C/C=C/C=C/C=C/[C@H](O[C@@H]2O[C@H](C)[C@@H](O)[C@H](N)[C@@H]2O)C[C@@H]2O[C@](O)(C[C@@H](O)C[C@@H](O)[C@H](O)CC[C@@H](O)C[C@@H](O)CC(=O)O[C@H]1C)C[C@H](O)[C@H]2C(=O)O [Amphotericin, amphotericin B] |  |  | MIC (Aspergillus niger; [1]): 31.5 µg/mL (≈ 34.1 µM) |
| Polymixin B | No inhibition | No inhibition |  |
| Clc1ccc(COC(Cn2ccnc2)c2ccc(Cl)cc2Cl)cc1 (stereo not drawn) [Econazole, Econazole nitrate] | No inhibition | No inhibition |  |
| Nystatin Methyl ester | No inhibition | 30 µg/mL | Inhibition of Aspergillus niger (MIC) (Aspergillus niger; diffusion paper disc, overnight at 30° C., average of three experiments, listed as Nystatin methyl ester): no observed inhibition |
| C[C@@H]1[C@H](O)[C@@H](C)/C=C/C=C/CC/C=C/C=C/C=C/C=C/C(O[C@H]2O[C@H](C)[C@@H](O)[C@H](N)[C@@H]2O)CC2O[C@](O)(CC(O)C(O)CCC(O)CC(O)CC(O)CC(=O)O[C@H]1C)CC(O)C2C(=O)O (stereo partly drawn) [Nystatin] | 22.5 µg/mL | 14 µg/mL |  |

Source: patent US20220096511A1, “ANTIFUNGAL AGENTS WITH IMPROVED WATER SOLUBILITY” (priority 2019, published 2022)
